# “Also recorded” adds a separate entry of the source.
# Key:
# recombinant mGGTase I = recombinant mGGTase I (Homo sapiens, UniProt P49354+P53609); test: GGTase I scintillation proximity assay; format: biochemical; conditions: tritiated GGPP
# Method: (§1) The method is described in detail in Yokama, et al., J. Biol. Chem., Vol. 272, No. 7, pages 3944-3952 (February 1997). The FTase, tritiated FPP, and the peptide were incubated at 37° C. for 30 minutes in a buffer. After incubation, a stop reagent and streptavidin beads (Amersham) were added. The radioactive product was counted on a Wallac Microbeta 1450 scintillation counter. The kinetic fits were derived from a nonlinear least squares computer fit of the data. The Ki values were determined using the same assay system with varying concentrations of tritiated FPP.
# GGTase I values were determined in a similar manner using recombinant mGGTase I, tritiated GGPP, and the peptide Biotin-Aha-Thr-Lys-Cys-Val-Ile-Leu-OH.
# H-Ras in H-Ras-F cells = test: Subcellular fractionation / Western blot of Ras in lovastatin-treated H-Ras-F cells; format: cell-based; conditions: for Subcellular location of H-Ras (membrane vs cytosol): H-Ras-F cells, 25 μM lovastatin 24 h, then analog 24 h
# Method: (§2) Following an additional 24 h incubation period, the cells were harvested, lysed and the membranes (M) separated from the cytosol (C). After solubilization of the membrane fraction, Ras protein was immunoprecipitated from both the membrane and cytosolic fractions by the addition of the Y13-259 antibody (OP04 from Oncogene Science). The presence of Ras protein in each fraction was analyzed by Western transfer techniques. Incubation with the primary antibody (pan-ras Ab-2 from Oncogene Science) and an anti-mouse HRP conjugate secondary antibody (Amersham) was employed for detection of the ras protein. Blots were developed using Enhanced Chemiluminescence techniques (Amersham). The technique is described in detail by Scholten, et al., Bioorg. Med. Chem., Vol. 4, pages 1537-1543 (1992).
# The results are shown in FIGS. 6 and 7 which are Western blots of the H-Ras-F and H-Ras-GG experiments, respectively. H-Ras-F cells were treated with lovastatin in order to block the mevalonate pathway, prevent the formation of FPP and GGPP, and thus, inhibit protein prenylation.
# [1] = target: recombinant mFTase (affinity purified rat FPTase) (Rattus norvegicus, UniProt Q02293+Q04631); test: FTase scintillation proximity assay; format: biochemical; conditions: for IC50: recombinant mFTase, tritiated FPP 0.12 μM, peptide 0.1 μM; for FTase/GGTase: selectivity mFTase against mGGTase I; for Ki: varying concentrations of tritiated FPP, read-out: K1 FTase
# Method: as §1
# [2] = target: T1, recombinant yeast FTase (yFTase) (Saccharomyces cerevisiae, UniProt P22007+P29703); conditions: cited from earlier work
# T1 sequence (P22007 1-431): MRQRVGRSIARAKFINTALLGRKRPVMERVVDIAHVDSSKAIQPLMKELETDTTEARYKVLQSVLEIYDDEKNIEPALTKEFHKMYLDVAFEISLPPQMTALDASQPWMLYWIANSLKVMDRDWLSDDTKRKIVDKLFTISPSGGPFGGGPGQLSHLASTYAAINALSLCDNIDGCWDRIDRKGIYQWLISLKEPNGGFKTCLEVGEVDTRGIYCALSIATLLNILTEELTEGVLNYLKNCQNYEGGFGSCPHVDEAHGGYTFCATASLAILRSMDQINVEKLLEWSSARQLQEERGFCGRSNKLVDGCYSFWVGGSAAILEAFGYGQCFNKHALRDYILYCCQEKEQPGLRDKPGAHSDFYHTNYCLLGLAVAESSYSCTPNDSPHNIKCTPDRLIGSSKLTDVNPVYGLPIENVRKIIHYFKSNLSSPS
# T1 sequence (P29703 1-316): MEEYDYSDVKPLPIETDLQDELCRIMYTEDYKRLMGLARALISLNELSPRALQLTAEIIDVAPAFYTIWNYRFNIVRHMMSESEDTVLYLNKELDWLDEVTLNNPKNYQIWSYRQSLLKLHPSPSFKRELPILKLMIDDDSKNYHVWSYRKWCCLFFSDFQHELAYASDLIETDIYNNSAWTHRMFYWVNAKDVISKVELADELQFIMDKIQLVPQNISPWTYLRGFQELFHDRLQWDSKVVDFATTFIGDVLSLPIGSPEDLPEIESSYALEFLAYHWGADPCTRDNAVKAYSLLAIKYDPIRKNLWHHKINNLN
# H-Ras-F cells = test: Cell morphology of lovastatin-treated H-Ras-F cells; format: cell-based; conditions: 25 μM lovastatin 24 h, then analog 24 h
# Method: It has been well established that levels of lovastatin that completely block the mevalonate pathway result in cell cycle blockade, significant cytotoxicity, and a sharp change in cell appearance to a rounded morphology. The effects of lovastatin on the cell morphology of H-Ras-F and H-Ras-GG cells treated with FPP, GGPP, 3-vFPP, 3-vGGPP, 3-alFPP, and 3-alGGPP were photographed and the results are shown on FIG. 9 (H-Ras-F) and 8 (H-Ras-GG), respectively. The H-Ras-F and H-Ras-GG cells were grown in six-well plates to 70-80% confluence. After treating the cells with lovastatin (25 μM) for 24 hour, the indicated FPP or GGPP analogs (re-suspended in media) were added directly to the cell media. Photographs were taken after an additional 24 hour incubation period.
# [3] = tested on: NIH 3T3 fibroblasts transfected with a transforming form of c-raf [Raf]; test: Soft agar anchorage-independent growth, Raf cells; format: cell-based; conditions: 2 weeks, mean of two tests
# Method: (§3) Presumably, the non-polar alcohols pass through the cell membrane and are then diphosphorylated by an as yet uncharacterized kinase to FPP or GGPP.
# (§4) The 3-substituted analogs were evaluated as inhibitors of the growth of ras-transformed cells by comparing their relative degree of activity against an isogenic panel of transformed cell lines, comprised of NIH 3T3 fibroblasts transfected with either H-Ras(61 L) [H-Ras-F], H-Ras(61 L)CVLL [H-Ras-GG], or a transforming form of c-raf [Raf]. The H-Ras-F, H-Ras-GG, and raf transformed NIH3T3 cell lines have been previously described in Cox, et al., Molecular and Cellular Biology, Vol. 12, No. 6, pages 2606-2615 (1992). The cells were grown prior to plating in Dulbecco's modified Eagle medium supplemented with 10% calf serum and 1% antibiotic/antimycotic at 37° C. and 10% CO2. Experiments were carried out in 6-well dishes in a two layer agar system (0.6% bottom layer and 0.3% top layer). Cells were incorporated into the top layer along with varying concentrations of the compound prepared in ethanol. Compound addition occurred only at the time the cells were seeded. Subsequent incubation was at 37° C. with 10% CO2 for 2 weeks. Colonies were stained with 0.5 ml/well of 1 mg/ml p-iodonitrotetrazolium violet (Sigma) for 24 hours prior to quantitation by image analysis.
# [4] = tested on: NIH 3T3 fibroblasts transfected with H-Ras(61 L) [H-Ras-F]; test: Soft agar anchorage-independent growth, H-Ras-F cells; format: cell-based; conditions: for IC50: soft agar, 2 weeks, read-out: Mean IC50 (±S.E.) H-Ras-F
# Method: as §3, §4
# [5] = tested on: NIH 3T3 fibroblasts transfected with H-Ras(61 L)CVLL [H-Ras-GG]; test: Soft agar anchorage-independent growth, H-Ras-GG cells; format: cell-based; conditions: 2 weeks, read-out: Mean IC50 (±S.E.) H-Ras-GG
# Method: as §3, §4
# [6] = tested on: H-Ras-GG in H-Ras-GG cells; test: Subcellular fractionation / Western blot of Ras in lovastatin-treated H-Ras-GG cells; format: cell-based; conditions: summary statement
# Method: as §2, with “H-Ras-F (A) or H-Ras-GG (B) cells were treated with 25 μM lovastatin for 24 h after which the indicated FPP or GGPP analogs (resuspended in media) were added directly to the cell media. Following” for “Following”
# The selectivity and mechanism of the observed cell growth inhibition was further probed by studying the effects of the 3-vinyl and 3-allyl GGPP analogs on the subcellular distribution of the geranylgeranylated protein variant in H-Ras-GG cells in a manner similar to that described for 3-vFPP and 3-alFPP. The Western blot is shown on FIG. 8. With H-Ras-GG cells, as with H-Ras-F cells, blockage of the mevalonate pathway results in a shift in the subcellular location of the Ras protein from the membrane to the cytosol.
# [7] = tested on: HPAC (human pancreatic adenocarcinoma cells); test: Proliferation of HPAC cells, Trypan Blue exclusion; format: cell-based; conditions: 48 hours
# Method: The malignant human cell line HPAC (human pancreatic adenocarcinoma cells) was used in this study. The cells were seeded at a concentration of 2×10^5/ml in 24 well culture plate (Costar, Cambridge, Mass). […] Varying amounts of the stock solutions were then used to treat the HPAC cells. The final concentration of the farnesol analogs in the culture plate wells ranged from 0 nM (ethanol-treated control) to 500 nM. The plate was then incubated at 37° C. under a 5% CO2-humidified atmosphere for 48 hours. The total viable cells from each well were determined by Trypan Blue (0.4%) exclusion (Gibco, N.Y.) followed by cell counting.
compound,measurement,setting,value
"C=C/C(=C\COP(=O)(O)OP(=O)(O)O)CC/C=C(\C)CCC=C(C)C [Compound 3-vFPP, 3-Vinyl-7,11-dimethyldodeca-2(Z),6(E),10-triene 1-Diphosphate]",IC50,recombinant mGGTase I,~100000 nM
same,Blocking of prenylation of Ras proteins in H-Ras-F cells,H-Ras in H-Ras-F cells,neither 3-vinylfarnesol nor 3-vFPP blocked the prenylation of Ras proteins
same,Subcellular location of H-Ras (membrane vs cytosol),H-Ras in H-Ras-F cells,virtually complete localization of the H-Ras protein in the membrane fraction (M)
same,Mode of inhibition of mFTase versus FPP,[1],competitive inhibitors
same,IC50,[1],173 nM
same,FTase/GGTase,[1],˜600
same,Ki,[1],96 nM
same,Substrate activity for yFTase,[2],poor alternative substrate
same,Reversal of rounded morphology of lovastatin-treated H-Ras-F cells,H-Ras-F cells,modest ability to do so
"C=CC/C(=C\CO)CC/C=C(\C)CC/C=C(\C)CCC=C(C)C [3-allyl Geranylgeraniol, 3-Allyl-7,11,15-trimethylhexadeca-2(Z),6(E),10(E),14-tetraen-1-ol]",IC50,[3],> 25000 nM
same,IC50,[4],> 25000 nM
same,IC50,[5],4600 nM
same,Protein geranylgeranylation in cells,[6],inhibits protein geranylgeranylation
CC/C(=C\COP(=O)(O)OP(=O)(O)O)CC/C=C(\C)CCC=C(C)C [Compound 3-etFPP],IC50,[1],215 nM
same,FTase/GGTase,[1],>460
"CC(C)=CCC/C(C)=C/CC/C(C)=C/CC/C(C)=C/COP(=O)(O)OP(=O)(O)O [GGPP, geranylgeranyl diphosphate, reference compound]",Reversal of rounded morphology of lovastatin-treated H-Ras-F cells,H-Ras-F cells,can be reversed
"CC(C)=CCC/C(C)=C/CC/C(=C/COP(=O)(O)OP(=O)(O)O)C(C)(C)C [Compound 3-tbFPP, 3-tert-butyl-2(Z),6(E),10-triene diphosphate]",IC50,recombinant mGGTase I,~50000 nM
same,Mode of inhibition of mFTase versus FPP,[1],competitive inhibitors
same,IC50,[1],31 nM
same,FTase/GGTase,[1],˜1600
same,Ki,[1],8 nM
same,Inhibition of yFTase,[2],potent competitive inhibitor
same,Substrate activity for yFTase,[2],exceptionally poor substrate
"CC(C)=CCC/C(C)=C/CC/C(=C/CO)C(C)(C)C [3-tert-butylfarnesol, 3-tert-Butyl-7,11-dimethyldodeca-2(Z),6(E),10-trien-1-ol]","Cellular activity (transformed cell growth, soft agar), in words",[4]; transformed NIH3T3 cell lines,inactive in cells
CC(C)=CCCC(C)=CCCC(=CCO)c1ccccc1 [3-phenyl Farnesol],IC50,[4],> 25000 nM
same,IC50,[5],> 25000 nM
CC(C)=CCC/C(C)=C/CC/C(=C/COP(=O)(O)OP(=O)(O)O)c1ccccc1 [Compound 3-phFPP],IC50,[1],299 nM
same,FTase/GGTase,[1],>340
"C=CC/C(=C\COP(=O)(O)OP(=O)(O)O)CC/C=C(\C)CCC=C(C)C [Compound 3-alFPP, 3-Allyl-7,11-dimethyldodeca-2(Z),6(E),10-triene 1-diphosphate]",Subcellular location of H-Ras (membrane vs cytosol),H-Ras in H-Ras-F cells,virtually all of the H-Ras being found in the cytosol
same,Mode of inhibition of mFTase versus FPP,[1],competitive inhibitors
same,IC50,[1],189 nM
same,FTase/GGTase,[1],>530
same,Ki,[1],31 nM
same,Reversal of rounded morphology of lovastatin-treated H-Ras-F cells,H-Ras-F cells,not able to reverse the morphology
"CC(C)=CCC/C(C)=C/CC/C(C)=C/CC/C(C)=C/CO [geranylgeraniol, reference compound]",Reversal of rounded morphology of lovastatin-treated H-Ras-F cells,H-Ras-F cells,can be reversed
CCC(=CCO)CCC=C(C)CCC=C(C)C [3-ethyl Farnesol],IC50,[4],> 25000 nM
same,IC50,[5],> 25000 nM
"CC[C@H](C)C(=O)O[C@H]1C[C@@H](C)C=C2C=C[C@H](C)[C@H](CC[C@@H]3C[C@@H](O)CC(=O)O3)[C@H]21 [lovastatin, reference compound]",Subcellular location of H-Ras (membrane vs cytosol),H-Ras in H-Ras-F cells,shift of the majority of H-Ras from the membrane fraction (M) to the cytosol (C)
"3-Allyl 7,11-dimethyldodeca-2(Z),6(E),10-trien-1-ol [3-ally Farnesol]",Effect on HPAC cells at 100 nM,[7]; 100 nM,cytostasis
same,Viable HPAC cell count at 100 nM,"[7]; 100 nM, seeded 2×10^5/ml, control well 2.2×10^6 cells",~2×10^5 /well
same,Effect on HPAC cells at 500 nM,"[7]; 500 nM, listed as 3-allylfarnesol",potently cytotoxic; also recorded: complete cytotoxicity

# From US6586461B1, “Prenyl transferase inhibitors” (Wayne State University, priority 1998, dated 2003)
